In paper PMC8868332, “Creating Robust Antimicrobial Materials with Sticky Tyrocidines” (Antibiotics, 2022):
Where no end group is shown, it is not given here.

Experiments:
L. monocytogenes = settings: cited from earlier work
Description: Table 2 Summary of the compounds used to compare with the Trc in creating robust non-covalent antimicrobial materials. | column: Minimum Inhibitory Concentration (μg/mL) / L. monocytogenes

Escherichia coli K12 = experiment: Resazurin assay of surface activity of peptide-treated cellulose; assay type: cell-based; settings: cellulose filters, 5.0 µg compound offered per 0.28 cm^2; normalised to untreated cellulose; Figure 6B, three biological and four technical repeats
Description: (§1) An aqueous solution of antimicrobial compound (100 µL of 50.0 µg/mL; 5% v/v acetonitrile) was incubated for two hours with the base material punch (0.28 cm^2), ensuring that 5.0 µg of compound was available for binding. Following the incubation, the antimicrobial compound solution was removed, and the samples washed twice with 100 µL sterile analytical quality water and dried in a 40 °C oven for 2 h. Treatment conditions were chosen to imitate large scale treatment/creation of packaging materials, such as aqueous solutions, followed by a drying step.
The antimicrobial activity of the Trc-containing materials and films were determined by a developed resazurin assay. Listeria monocytogenes B73 was streaked out from freezer stocks onto BHI agar plates (Brain Heart Infusion; 1.5% m/v agar) and incubated for 48 h at 37 °C until colonies were viable. Escherichia coli K12 was streaked out from freezer stocks onto LB plates (1% m/v NaCl, 1% m/v tryptone, 0.5% m/v yeast extract, 1.5% m/v agar in water) and incubated at 37 °C for 24 h. Starter cultures were prepared, by inoculating 1 mL medium with 3–5 colonies and growing the cells overnight at 37 °C at an angle, shaking at 150 RPM. […] This culture was then pipetted (10 µL) onto the treated and untreated materials in a 96-well assay plate and incubated for one hour at 37 °C. Following the incubation, 90 µL PBS (phosphate buffered saline; 0.8% m/v NaCl, 0.04% m/v KCl, 0.144% m/v Na2HPO4, 0.02% m/v KH2PO4; pH 7.4), and 10 µL resazurin dye (0.3 mg/mL in PBS) was added, followed by a further incubation at 37 °C. The conversion of the resazurin was measured at Ex530 and Em590 after 30 min for L. monocytogenes and 90 min for E. coli using the Tecan Spark 10 M Multimode Microplate Reader and controlled by the Spark Control^TM software, both provided by Tecan Group Ltd. (Mennedorf, Switzerland). […] The activity of the material was determined in terms of percentage inhibition by using the acquired fluorescence readings (F), with the following Equation: (1) %Inhibition of Target organism=100−(F of well−F of average blank)×100/(F of growth control−F of average blank).

[1] = general character summarised in Table 2; no reference given; cited from earlier work
Description: Table 2 Summary of the compounds used to compare with the Trc in creating robust non-covalent antimicrobial materials. | column: Character

E. coli = settings: cited from earlier work
Description: Table 2 Summary of the compounds used to compare with the Trc in creating robust non-covalent antimicrobial materials. | column: Minimum Inhibitory Concentration (μg/mL) / E. coli

[2] = tested on: Listeria monocytogenes B73; experiment: Resazurin assay of surface activity of peptide-treated materials; assay type: cell-based; settings: cellulose filters, 5.0 µg compound offered per 0.28 cm^2; normalised to untreated cellulose; Figure 6A, three biological and four technical repeats
Description: as §1
The antimicrobial activity of the Trc-containing materials and films were determined by a developed resazurin assay. […] The conversion of the resazurin was measured at Ex530 and Em590 after 30 min for L. monocytogenes and 90 min for E. coli using the Tecan Spark 10 M Multimode Microplate Reader and controlled by the Spark Control^TM software, both provided by Tecan Group Ltd. (Mennedorf, Switzerland). […] The activity of the material was determined in terms of percentage inhibition by using the acquired fluorescence readings (F), with the following Equation: (1) %Inhibition of Target organism=100−(F of well−F of average blank)×100/(F of growth control−F of average blank).

Compound | Minimum Inhibitory Concentration L. monocytogenes (L. monocytogenes) | % Inhibition of E. coli by peptide-treated cellulose (Escherichia coli K12) | Haemolytic character (Character) [1] | Solubility (Character) [1] | Minimum Inhibitory Concentration E. coli (E. coli) | % Inhibition of L. monocytogenes by peptide-treated cellulose [2]
CNC(C)C1CCC(N)C(OC2C(N)CC(N)C(OC3OCC(C)(O)C(NC)C3O)C2O)O1 (stereo not drawn) [Gentamicin] | 0.5–4.0 [91, 92] μg/mL | – | – | – | – | –
Leucocin A (KYYGNGVHCTKSGCSVNWGEAFSAGVHRLANGGNGFW; ends and bridges not checked; cysteine pairing not given here; UniProt P34034 25-61, looked up) [37-mer cationic, amphipathic disulphide-bonded bacteriocin from Leuconostoc gelidum UAL187] | 0.98–1.98 [87] μg/mL | low levels of inhibition | non-haemolytic | water-soluble | – | –
Magainin 2 | – | “negative” inhibition | – | – | 10–50 [85] μg/mL | –
Melittin | 0.315 ± 0.008 [88] μg/mL | low levels of inhibition | haemolytic | water-soluble | 15–42.5 [89, 90] μg/mL | –
PGLa | – | “negative” inhibition | – | – | 10–50 [86] μg/mL | –
gramicidin S [GS] | 11 ± 0.20 [34] μg/mL | full inhibition | – | – | 3–12.5 [84] μg/mL | 100%
